Measured values: publication PMC10726358 (Journal of Medicinal Chemistry, 2023)
≈ marks a conversion by molar mass, not a printed value. Where “and” joins values, the source holds several entries; their conditions need not be identical. Equal entries are not always repeated. Structures can show the parent of a compound that is named as a salt. Where two headings read alike, the source gives them in different places.

Experiments:
[1] = test system: BRD4 BD1; format: binding, human; settings: TR-FRET
Experimental: (§1) As a strategic decision, every compound synthesized across all of GSK’s bromodomain research projects was tested in both a BRD4 BD1 and a BRD4 BD2 TR-FRET assay as part of tier 1 data generation. […] LipE is a straightforward, yet powerful metric for medicinal chemistry teams to normalize potency relative to lipophilicity, a critical factor both for parameters of the human dose equation and also for promiscuity.[43],[44] To aid interpretation, diagonal lines representing different LipE values are shown, with the most desirable space found toward the top left-hand area of the plot representing molecules with the comparatively highest potency per unit of lipophilicity.
(§2) All TR-FRET and hWB cytokine assays have been described previously.[54]

[2] = test system: BRD4 BD2; experiment: BRD4 BD2 TR-FRET assay; format: binding, human
Experimental: as §1, §2

[3] = Chromatographic LogD at pH 7.4
[4] = CLND kinetic aqueous solubility
[5] = test system: MCP-1; experiment: LPS-stimulated human whole blood (hWB) MCP-1 release assay; format: cell-based; settings: for IC50: LPS-stimulated human whole blood
Excerpt: The utility of a chemical probe in target validation is directly related to its quality, with important publications detailing requirements to aid researchers.[36]−[38] […] It was accepted that selectivity would be judged initially through a mutant BRD4 TR-FRET assay and would likely shift depending on the protein construct and assay format. […] Previous studies have shown that BET BD1 inhibition is sufficient to inhibit in vitro production of MCP-1 in LPS-stimulated hWB and, as such, served as a relevant measure of cellular target engagement and, concomitantly, proof of cellular permeability.[12],[39] Selectivity over other human bromodomains outside of the BET family, known collectively as non-BET bromodomains, was also required,[40] with a ≥ 100-fold selectivity window targeted. To ensure the molecules remained within developable chemical space, a target property forecast index (PFI) as defined by chromLogDpH7.4 + number of aromatic rings ≤6 was set.[41]
(§3) To understand cellular target engagement, 21 was tested in an LPS-stimulated hWB assay measuring inhibition of the inflammatory mediator MCP-1 secretion.
as §2

[6] = CAD aqueous solubility
Experimental: as §3
ChromatographicLogD at pH 7.4, artificial membrane permeability, CLND solubility, and CAD solubility were measured using published protocols.[55]

[7] = read-out: hWB MCP-1 pIC50 (converted)

Compound	BRD4 BD1 FRET pIC50 [1]	fold selectivity (BRD4 BD1 over BRD4 BD2) [1]	BRD4 BD2 FRET pIC50 [2]	chromLogDpH7.4 ([3]; pH 7.4)	solubility ([4]; aqueous) [µg/mL]	IC50 [5, 7] [nM]	solubility [6] [µg/mL]	chromatographic logD ([3]; pH 7.4)	solubility ([4]; aqueous (buffer not specified)) [µg/mL]	IC50 ([5]; read-out: hWB MCP-1 IC50) [nM]	drop of hWB activity compared to BRD4 BD1 potency ([5]; hWB MCP-1 vs BRD4 BD1 TR-FRET) [fold]	IC50 ([1]; read-out: BRD4 BD1 potency (IC50)) [nM]	PFI (property forecast index) ([3]; chromLogDpH7.4 + number of aromatic rings)
Cc1cc(-c2nc3ccccc3n2CC2CCOCC2)cn(C)c1=O [Compound 13]	7.2	6 fold	6.4	2.7	≥ 142								
Cc1cc(-c2nc3ccccc3n2C[C@@H]2CCCN(C(=O)C3CCC(N)CC3)C2)cn(C)c1=O (stereo in doubt) [Compound 28, 5-(1-(((S)-1-((1r,4R)-4-Aminocyclohexane-1-carbonyl)piperidin-3-yl)methyl)-1H-benzo [d]imidazole-2-yl)-1,3-dimethylpyridin-2(1H)-one]	7.9	631 fold	5.1			316	≥ 155	1.4					
Cc1cc(-c2nc3ccccc3n2C[C@@H]2CCCN(C(=O)C3CCCN(C)C3)C2)cn(C)c1=O (stereo partly drawn) [Compound 29, 1,3-Dimethyl-5-(1-(((3S)-1-(1-methylpiperidine-3-carbonyl)piperidin-3-yl)methyl)-1H-benzo[d]imidazole-2-yl)pyridin-2(1H)-one]	6.8	50 fold	5.1			1580	≥ 204	1.7					
Cc1cc(-c2nc3ccccc3n2C[C@@H]2CCCN(C(=O)[C@H]3CCNC3)C2)cn(C)c1=O [Compound 24, 1,3-Dimethyl-5-(1-(((S)-1-((S)-pyrrolidine-3-carbonyl)piperidin-3-yl)methyl)-1H-benzo[d]imidazole-2-yl)pyridin-2(1H)-one]	7.6	200 fold	5.3			1000	≥ 208	1.3					
Cc1cc(-c2nc3ccccc3n2C[C@@H]2CCCN(C(=O)[C@H]3C[C@H](N)C3)C2)cn(C)c1=O [Compound 23, 5-(1-(((S)-1-((1r,3S)-3-Aminocyclobutane-1-carbonyl)piperidin-3-yl)methyl)-1H-benzo[d]imidazole-2-yl)-1,3-dimethylpyridin-2(1H)-one]	7.9	316 fold	5.4			200	≥ 230	1.2					
Cc1cc(-c2nc3ccccc3n2C[C@@H]2CCCN(C(=O)[C@H]3CC[C@H](N)C3)C2)cn(C)c1=O [Compound 25, 5-(1-(((S)-1-((1S,3S)-3-Aminocyclopentane-1-carbonyl)piperidin-3-yl)methyl)-1H-benzo[d]imidazole-2-yl)-1,3-dimethylpyridin-2(1H)-one]	7.7	500 fold and 501 fold	5.0			1000	≥ 157	1.4					
Cc1cc(-c2nc3ccccc3n2C[C@@H]2CCCNC2)cn(C)c1=O [Compound 19, (R)-1,3-Dimethyl-5-(1-(piperidin-3-ylmethyl)-1H-benzo[d]imidazole-2-yl)pyridin-2(1H)-one]	6.2	16 fold	5.0					0.7	≥ 152				
Cc1cc(-c2nc3ccccc3n2C[C@@H]2CCCN(C(=O)CCCN)C2)cn(C)c1=O [Compound 21, (S)-5-(1-((1-(4-Aminobutanoyl)piperidin-3-yl)methyl)-1H-benzo[d]imidazole-2-yl)-1,3-dimethylpyridin-2(1H)-one]	7.8	158 fold	5.6			501	113 (≈ 268 µM)	1.2		500	40		
CC(=O)N1CCC(C(=O)N2CCC[C@@H](Cn3c(-c4cc(C)c(=O)n(C)c4)nc4ccccc43)C2)CC1 [Compound 33, (S)-5-(1-((1-(1-Acetylpiperidine-4-carbonyl)piperidin-3-yl)methyl)-1H-benzo[d]imidazole-2-yl)-1,3-dimethylpyridin-2(1H)-one]	6.5	63 fold	4.7			2000	≥ 205	2.2					
CC(=O)N1CCC[C@@H](Cn2c(-c3cc(C)c(=O)n(C)c3)nc3ccccc32)C1 [(S)-12, (S)-5-(1-((1-Acetylpiperidin-3-yl)methyl)-1H-benzo[d]imidazole-2-yl)-1,3-dimethylpyridin-2(1H)-one]	8.0	63 fold	6.2		≥ 247			2.2				10	5.2
Cc1cc(-c2nc3ccccc3n2C[C@@H]2CCCN(C(=O)c3cnc[nH]3)C2)cn(C)c1=O [Compound 26, (S)-5-(1-((1-(1H-Imidazole-5-carbonyl)piperidin-3-yl)methyl)-1H-benzo[d]imidazole-2-yl)-1,3-dimethylpyridin-2(1H)-one, Formic Acid Salt]	7.0	126 fold	4.9			2510	≥ 160	1.9					
Cc1cc(-c2nc3ccccc3n2C[C@@H]2CCCN(C(=O)C3CCNCC3)C2)cn(C)c1=O [Compound 27, (S)-1,3-Dimethyl-5-(1-((1-(piperidine-4-carbonyl)piperidin-3-yl)methyl)-1H-benzo[d]imidazole-2-yl)pyridin-2(1H)-one]	7.5	398 fold	4.9			1000	≥ 215	1.3					
Cc1cc(-c2nc3ccccc3n2C[C@@H]2CCCN(C(=O)C3CCN(C)CC3)C2)cn(C)c1=O [Compound 30, (S)-1,3-Dimethyl-5-(1-((1-(1-methylpiperidine-4-carbonyl)piperidin-3-yl)methyl)-1H-benzo[d]imidazole-2-yl)pyridin-2(1H)-one]	7.6	631 fold	4.8			251	≥ 237	1.5					
Cc1cc(-c2nc3ccccc3n2C[C@@H]2CCCN(C(=O)C3CCOCC3)C2)cn(C)c1=O [Compound 32, (S)-1,3-Dimethyl-5-(1-((1-(tetrahydro-2H-pyran-4-carbonyl)piperidin-3-yl)methyl)-1H-benzo[d]imidazole-2-yl)pyridin-2(1H)-one]	6.7	100 fold	4.7			794	≥ 245	2.7					
CC(=O)N1CCC[C@H](Cn2c(-c3cc(C)c(=O)n(C)c3)nc3ccccc32)C1 [(R)-12, (R)-5-(1-((1-Acetylpiperidin-3-yl)methyl)-1H-benzo[d]imidazole-2-yl)-1,3-dimethylpyridin-2(1H)-one]	7.5	16 fold	6.3		≥ 169			2.3					
Cc1cc(-c2nc3ccccc3n2C[C@@H]2CCCN(C(=O)C3CNC3)C2)cn(C)c1=O [Compound 22, (S)-5-(1-((1-(Azetidine-3-carbonyl)piperidin-3-yl)methyl)-1H-benzo[d]imidazole-2-yl)-1,3-dimethylpyridin-2(1H)-one]	8.0	126 fold	5.9			631	≥ 169	1.2					
Cc1cc(-c2nc3ccccc3n2C[C@@H]2CCCN(C(=O)C3CCN(CC(F)(F)F)CC3)C2)cn(C)c1=O [Compound 36, (S)-1,3-Dimethyl-5-(1-((1-(1-(2,2,2-trifluoroethyl)piperidine-4-carbonyl)piperidin-3-yl)methyl)-1H-benzo[d]imidazole-2-yl)pyridin-2(1H)-one]	6.3	40 fold	4.7			1260	≥ 201	4.2					
